Data reported in patent US20200378993A1, “MEDICAL USES OF APOLIPOPROTEIN A AND ACTIVATORS THEREOF” (FUNDACIÓN IMDEA ALIMENTACIÓN, priority 2017, published 2020).

How the values were obtained:
Format in all cases: cell-based, human
DLD1 cells [1] = assay: Invasion assay (Corning BioCoat Matrigel plates); conditions: ApoA1 40 μg/ml 72 hours before, 20 μg/ml during assay; DLD1 cells
Protocol: (§1) Cell viability and proliferation assays were carried out by means of XCELLigence technology (ACEA Biosciences, Inc.) following the manufacturer's indications. Migration and invasion assays were carried out in Corning® BioCoat™ Control plates (#354578) and Corning® BioCoat™ Matrigel plates (#354480), respectively, following the manufacturer's indications. For the rescue assays, the cells were treated for 72 hours with 30 μM apabetalone (RVX-208; Biovision). Antibodies: ABCA1 (Ab18180, Abcam. 1:500); caveolin-1 (Ab2910, Abcam. 1:1000); α-tubulin (T9026, Sigma 1:1000). The DLD1 cells correspond to a human colorectal cancer-derived adherent epithelial cell line (ATCC® CCL-221™). The stable cell lines capable of overexpressing ABCA1 were obtained by means of transduction with genetically modified lentivirus.
(§2) Following the same treatment regimen, the inventors carried out migration and invasion assays.
(§3) The same assays were repeated by replacing ApoA1 with a treatment with RVX-208. In this case, DLD1 cells were pre-treated for 72 hours before the start of the experiment with RVX-208 at a concentration of 30 μm and were subjected to a treatment with 15 μM of RVX-208 during the development of the experiments.
(§4) For the purpose of confirming that the effects of RVX-208 in cell phenotype recovery were due to the increase in ApoA-1 expression, the inventors inhibited the expression of said protein by means of transfection of a complementary small RNA, ShApoA1 (FIG. 9). Twenty-four hours after transfection with ShApoA1 expression vector, the inventors started treatment with 30 μM of RVX-208. Cell viability and proliferation in DLD1 cells (D_NoORF) and D1D1 cell lines expressing increased ApoA1 levels (D_ApoA1 ) were analyzed with the xCELLigence system.

DLD1 cells [2] = assay: Migration assay (Corning BioCoat Control plates); conditions: ApoA1 40 μg/ml 72 hours before, 20 μg/ml during assay
Protocol: as §1, §2, §3

DLD1_ABCA1 cells = assay: Cell viability and proliferation assay (XCELLigence); conditions: 40 μg/ml apolipoprotein A1 (72 hours before, 20 μg/ml during acquisition); DLD1_ABCA1 cells
Protocol: (§5) FIG. 6. A) Proliferation curve in a viability assay carried out by means of XCELLigence technology. The results for the stable cell line overexpressing ABCA1 in the absence and presence of ApoA1 are shown. The cells were treated for 72 hours before the experiment with 40 μg/ml of ApoA1 and with a concentration of 20 μg/ml during acquisition. B) Migration and invasion assays. The method followed was the same as the one described in FIG. 1. (**p-value=0.003; ****p-value<0.0001). C) ABCA1 messenger RNA level (left panel) and ABCA1 protein level (right panel) in the presence and absence of treatment with ApoA1. Results are shown both for the control cells and for those cells overexpressing the transporter.
Cell viability and proliferation assays were carried out by means of XCELLigence technology (ACEA Biosciences, Inc.) following the manufacturer's indications. Migration and invasion assays were carried out in Corning® BioCoat™ Control plates (#354578) and Corning® BioCoat™ Matrigel plates (#354480), respectively, following the manufacturer's indications. […]
(§6) The inventors were able to confirm said results based on the treatment of DLD1 cells expressing ABCA1 with RVX-208 under the conditions already described in detail in Example 3. […] The levels of caveolin-1, a protein whose increased levels have been associated with increases in cell migration and invasion, were also analyzed in this experiment.

DLD1 cells [3] = assay: as above; conditions: ApoA1 40 μg/ml first dose of 72 hours, 20 μg/ml during result acquisition; DLD1 cells
Protocol: as §1, §2, §3, §4

[4] = system: ABCA1 cholesterol transporter; assay: ABCA1 messenger RNA and protein level after treatment
Protocol: as §5
FIG. 7. A) Proliferation curve in a viability assay carried out by means of XCELLigence technology. Growth of DLD1 cells treated with DMSO as the drug carrier and with Rvx-208 (30 μM). The significant differences existing in the slope of the graph, and therefore in the growth dynamics of the treated cells are shown in the right panel (****p-value<0.0001). B) Migration and invasion assays. The method followed was the same as the one described in FIG. 2 (*p-value=0.0407; ****p-value<0.0001). C) Expression levels of proteins E-cadherin and Vimentin in the presence and absence of Rvx-208. Analysis performed by means of quantitative PCR. The relative expression levels normalized with respect to the untreated control are shown. D) ABCA1, ApoA1, caveolin-1, and α-tubulin immunodetection by means of Western blot. α-tubulin acts as load control. The results of the cells treated with Rvx-208 (30 μM) or with the DMSO carrier are shown. E) Cholesterol flux in cells treated with Rvx-208.
as §1, with “The stable cell lines capable of overexpressing ABCA1 were obtained by means of transduction with genetically modified lentivirus.” left out
as §6

[5] = treatment with ApoA1, control cells and cells overexpressing ABCA1

## ApoA1: apolipoprotein A1 protein administered to the cells
DLD1 cells [1]
  capacity to invade the extracellular matrix: reduced capacities
DLD1 cells [2]
  capacity to migrate to the serum-rich region: reduced capacities to migrate to the serum-rich region
DLD1_ABCA1 cells
  proliferative capacity: dropped to levels that are comparable to the control situation
DLD1 cells [3]
  cell proliferation: significant decrease in cell proliferation
[4]; direct treatment with ApoA1, as restated in Example 5 (FIG. 6C)
  ABCA1 levels: induces an increase in ABCA1 levels
[4]; [5]
  ABCA1 expression level, messenger RNA level: significantly decreases the expression levels
  ABCA1 expression level, protein level: significantly decreases the expression levels
